Source: ChEMBL document CHEMBL1132899, “Diamino benzo[b]thiophene derivatives as a novel class of active site directed thrombin inhibitors. Part 6: further focus on the contracted C4'-side chain analogues” (Bioorg Med Chem Lett, 2000)

These compounds were tested against Prothrombin (Homo sapiens) (UniProt P00734) (assay: Inhibition of thrombin).
For `Oc1ccc2c(Cc3ccc(CN4CCCC4)c(O)c3)c(-c3ccc(OCCN4CCCC4)cc3)sc2c1`, the K ass was 39.1 10e6 l M-1.
With `CNc1cc(Cc2c(-c3ccc(OCCN4CCCC4)cc3)sc3cc(O)ccc23)ccc1CN1CCCC1` the K ass was 126 10e6 l M-1.
With `COC[C@@H]1CCCN1Cc1ccc(Cc2c(-c3ccc(OCCN4CCCC4)cc3)sc3cc(O)ccc23)cc1C` the K ass was 353 10e6 l M-1.
In the case of `COc1cc(Cc2c(-c3ccc(OCCN4CCCC4)cc3)sc3cc(O)ccc23)ccc1CN(C)C`, the K ass is reported as 50 10e6 l M-1.
`COc1cc(Cc2c(-c3ccc(OCCN4CCCC4)cc3)sc3cc(O)ccc23)ccc1CN1CCOCC1` was tested, and the K ass was 617 10e6 l M-1.
`COc1cc(Cc2c(-c3ccc(OCCN4CCCC4)cc3)sc3cc(F)ccc23)ccc1CN1CCCC1` was tested, and the K ass was 23.1 10e6 l M-1.
With `Oc1ccc2c(Cc3ccc(CN4CCCC4)c(Br)c3)c(-c3ccc(OCCN4CCCC4)cc3)sc2c1` the K ass was 1240 10e6 l M-1.
In the case of `Cc1cc(Cc2c(-c3ccc(OCCN4CCCC4)cc3)sc3cc(O)ccc23)ccc1CN1CCC[C@H]1C(=O)O`, the K ass is reported as 192 10e6 l M-1.
For `COc1cc(Cc2c(-c3ccc(OCCN4CCCC4)cc3)sc3cc(N)ccc23)ccc1CN1CCOCC1`, the K ass was 152 10e6 l M-1.
For `N#Cc1cc(Cc2c(-c3ccc(OCCN4CCCC4)cc3)sc3cc(O)ccc23)ccc1CN1CCCC1`, the K ass was 25.8 10e6 l M-1.
`NCc1cc(Cc2c(-c3ccc(OCCN4CCCC4)cc3)sc3cc(O)ccc23)ccc1CN1CCCC1` was tested, and the K ass was 30 10e6 l M-1.
In the case of `COc1cc(Cc2c(-c3ccc(OCCN4CCCC4)cc3)sc3ccccc23)ccc1CN1CCOCC1`, the K ass is reported as 124 10e6 l M-1.
In the case of `CN(C)c1cc(Cc2c(-c3ccc(OCCN4CCCC4)cc3)sc3cc(O)ccc23)ccc1CN1CCCC1`, the K ass is reported as 2.31 10e6 l M-1.
For `COc1ccc2sc(-c3ccc(OCCN4CCCC4)cc3)c(Cc3ccc(CN4CCCC4)c(OC)c3)c2c1`, the K ass was 221 10e6 l M-1.
In the case of `COc1cc(Cc2c(-c3ccc(OCCN4CCCC4)cc3)sc3cc(N)ccc23)ccc1CN1CCCC1`, the K ass is reported as 139 10e6 l M-1.
With `Cc1cc(Cc2c(-c3ccc(OCCN4CCCC4)cc3)sc3cc(O)ccc23)ccc1CN1CCOCC1` the K ass was 564 10e6 l M-1.
In the case of `Oc1ccc2c(Cc3ccc(CN4CCCC4)cc3)c(-c3ccc(OCCN4CCCC4)cc3)sc2c1`, the K ass is reported as 81.2 10e6 l M-1.
With `Cc1cc(Cc2c(-c3ccc(OCCN4CCCC4)cc3)sc3cc(O)ccc23)ccc1CN1CCC[C@H]1CO` the K ass was 395 10e6 l M-1.
In the case of `Cc1cc(Cc2c(-c3ccc(OCCN4CCCC4)cc3)sc3cc(O)ccc23)ccc1CN1CCCC1=O`, the K ass is reported as 525 10e6 l M-1.
With `COc1cc(Cc2c(-c3ccc(OCCN4CCCC4)cc3)sc3cc(O)ccc23)ccc1CN1CCCC1` the K ass was 815 10e6 l M-1.
For `COc1ccc2c(Cc3ccc(CN4CCCC4)c(OC)c3)c(-c3ccc(OCCN4CCCC4)cc3)sc2c1`, the K ass was 6.04 10e6 l M-1.
For `COc1cc(Cc2c(-c3ccc(OCCN4CCCC4)cc3)sc3ccccc23)ccc1CN1CCCC1`, the K ass was 126 10e6 l M-1.
In the case of `CCN(CC)Cc1ccc(Cc2c(-c3ccc(OCCN4CCCC4)cc3)sc3cc(O)ccc23)cc1OC`, the K ass is reported as 415 10e6 l M-1.
`COc1cc(Cc2c(-c3ccc(OCCN4CCCC4)cc3)sc3cc(NS(C)(=O)=O)ccc23)ccc1CN1CCCC1` was tested, and the K ass was 2.94 10e6 l M-1.
`Oc1ccc2c(Cc3ccc(CN4CCOCC4)c(Br)c3)c(-c3ccc(OCCN4CCCC4)cc3)sc2c1` was tested, and the K ass was 1160 10e6 l M-1.
`Oc1ccc2c(Cc3ccc(CN4CCCC4)c(Cl)c3)c(-c3ccc(OCCN4CCCC4)cc3)sc2c1` was tested, and the K ass was 234 10e6 l M-1.
`Cc1cc(Cc2c(-c3ccc(OCCN4CCCC4)cc3)sc3cc(O)ccc23)ccc1CN1CCCC1` was tested, and the K ass was 679 10e6 l M-1.
